In series [1] the test system is PC-12. Briefly: Inhibition of NGF-mediated neurite outgrowth in rat PC12 cells after 24 hrs by light microscopy. Type of series: functional, cell-based.
In series [2] the test system is PC-12. Briefly: Increase of NGF-mediated neurite outgrowth in rat PC12 cells after 24 hrs by light microscopy. Type of series: functional, cell-based.
Series [3] concerns PC-12. The series can be described thus: Increase of NGF-mediated neurite outgrowth in rat PC12 cells at 1 uM after 24 hrs by light microscopy (reference value: 21.06 +/- 1.27 %). It counts as functional.
Series [4] relates to PC-12. Briefly: Cytotoxicity against rat PC12 cells at 100 uM after 2 days by MTT assay. Type of series: cell-based. Conditions: pc-12, 48 h. (In general: Formazan colour is commonly taken as a measure of viable cells.)
For series [5], the system named is PC-12. Briefly: Inhibition of NGF-mediated neurite outgrowth in rat PC12 cells at 10 uM after 24 hrs by light microscopy (reference value: 21.06 +/- 1.27 %). It counts as functional. To be noted: PC-12, 24 h.
Series [6] has as its target T1, Mitogen-activated protein kinase 1 and 3 (ERK2 and ERK1) (Rattus norvegicus) (UniProt P63086+P21708). The series can be described thus: Inhibition of NGF-induced ERK1/2 phosphorylation in rat PC12 cells at 1 uM after 15 mins by Western blotting analysis relative to beta-actin level (reference value: 0.275 +/- 0.005). Type of series: cell-based. To be noted: PC-12. (Immunoblotting shows a protein as a band on a membrane.)

For series [7], the target named is High affinity nerve growth factor receptor (Rattus norvegicus) (UniProt P35739). Briefly: Inhibition of NGF-induced TrkA receptor phosphorylation in rat PC12 cells at 50 uM after 15 mins by ELISA relative to control. To be noted: PC-12. Type of series: cell-based. On the technique in general: An ELISA detects its analyte on a solid surface through an enzyme-linked reagent.
Sequence of High affinity nerve growth factor receptor (Rattus norvegicus) (P35739 whole entry): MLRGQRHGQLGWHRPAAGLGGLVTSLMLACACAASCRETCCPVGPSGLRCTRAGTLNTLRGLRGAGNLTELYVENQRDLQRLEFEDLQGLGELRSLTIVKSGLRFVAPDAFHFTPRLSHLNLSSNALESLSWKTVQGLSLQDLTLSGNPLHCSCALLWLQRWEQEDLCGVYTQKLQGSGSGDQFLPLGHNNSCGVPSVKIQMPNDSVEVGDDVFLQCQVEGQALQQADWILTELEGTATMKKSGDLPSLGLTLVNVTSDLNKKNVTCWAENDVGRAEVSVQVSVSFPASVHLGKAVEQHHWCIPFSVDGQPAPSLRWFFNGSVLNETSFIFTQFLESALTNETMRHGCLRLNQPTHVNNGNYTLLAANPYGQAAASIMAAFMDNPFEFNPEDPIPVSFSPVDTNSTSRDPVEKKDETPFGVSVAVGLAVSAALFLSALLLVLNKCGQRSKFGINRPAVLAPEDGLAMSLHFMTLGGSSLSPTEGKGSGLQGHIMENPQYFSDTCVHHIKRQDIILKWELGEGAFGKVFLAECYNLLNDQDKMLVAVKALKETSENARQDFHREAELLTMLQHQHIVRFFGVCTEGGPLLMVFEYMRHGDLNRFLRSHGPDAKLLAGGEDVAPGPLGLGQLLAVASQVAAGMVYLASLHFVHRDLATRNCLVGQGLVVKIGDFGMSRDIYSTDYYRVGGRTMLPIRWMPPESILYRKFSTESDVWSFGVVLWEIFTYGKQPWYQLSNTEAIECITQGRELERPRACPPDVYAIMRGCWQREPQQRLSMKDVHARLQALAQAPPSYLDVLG

The target is the same in series [8]. Briefly: Inhibition of NGF-induced TrkA receptor phosphorylation in rat PC12 cells at 10 uM after 15 mins by ELISA relative to control. It counts as cell-based. To be noted: PC-12.
Series [9] concerns the target T1, Mitogen-activated protein kinase 1 and 3 (ERK2 and ERK1) (Rattus norvegicus). The series can be described thus: Inhibition of NGF-induced ERK1/2 phosphorylation in rat PC12 cells after 15 mins by Western blotting analysis relative to beta-actin level. Conditions: PC-12. It counts as cell-based.
Series [10] deals with High affinity nerve growth factor receptor (Rattus norvegicus) (UniProt P35739). The series can be described thus: Inhibition of NGF-induced TrkA receptor phosphorylation in rat PC12 cells at 1 uM after 15 mins by ELISA relative to control. It counts as cell-based. To be noted: PC-12.
For series [11], the system named is PC-12. Briefly: Inhibition of NGF-mediated neurite outgrowth in rat PC12 cells at 100 uM after 24 hrs by light microscopy (reference value: 21.06 +/- 1.27 %). It counts as functional. Conditions: PC-12, 24 h.
The subject of series [12] is PC-12. Briefly: Inhibition of NGF-mediated neurite outgrowth in rat PC12 cells at 50 uM after 24 hrs by light microscopy (reference value: 21.06 +/- 1.27 %). To be noted: PC-12, 24 h. It counts as functional.
Series [13] has as its target T1, Mitogen-activated protein kinase 1 and 3 (ERK2 and ERK1) (Rattus norvegicus). Briefly: Inhibition of NGF-induced ERK1/2 phosphorylation in rat PC12 cells at 10 uM after 15 mins by Western blotting analysis relative to beta-actin level (reference value: 0.275 +/- 0.005). Type of series: cell-based. Conditions: PC-12.
The target in series [14] is High affinity nerve growth factor receptor (Rattus norvegicus) (UniProt P35739). Briefly: Inhibition of NGF-induced TrkA receptor phosphorylation in rat PC12 cells after 15 mins by ELISA relative to control. It counts as cell-based. To be noted: PC-12.
The test system of series [15] is PC-12. The series can be described thus: Increase of NGF-induced neuronal differentiation in rat PC12 cells up to 100 uM after 24 hrs by light microscopy. Type of series: functional, cell-based.
The target in series [16] is T1, Mitogen-activated protein kinase 1 and 3 (ERK2 and ERK1) (Rattus norvegicus). Briefly: Inhibition of NGF-induced ERK1/2 phosphorylation in rat PC12 cells at 50 uM after 15 mins by Western blotting analysis relative to beta-actin level (reference value: 0.275 +/- 0.005). Conditions: PC-12. It counts as cell-based.

The source made the active and inactive calls. The rule behind the calls is not given here.

We go through twelve compounds from ChEMBL document CHEMBL2010759, “Scabronine M, a novel inhibitor of NGF-induced neurite outgrowth from PC12 cells from the fungus Sarcodon scabrosus” (Bioorg Med Chem Lett, 2012).

T1 sequence (P21708 whole entry, looked up): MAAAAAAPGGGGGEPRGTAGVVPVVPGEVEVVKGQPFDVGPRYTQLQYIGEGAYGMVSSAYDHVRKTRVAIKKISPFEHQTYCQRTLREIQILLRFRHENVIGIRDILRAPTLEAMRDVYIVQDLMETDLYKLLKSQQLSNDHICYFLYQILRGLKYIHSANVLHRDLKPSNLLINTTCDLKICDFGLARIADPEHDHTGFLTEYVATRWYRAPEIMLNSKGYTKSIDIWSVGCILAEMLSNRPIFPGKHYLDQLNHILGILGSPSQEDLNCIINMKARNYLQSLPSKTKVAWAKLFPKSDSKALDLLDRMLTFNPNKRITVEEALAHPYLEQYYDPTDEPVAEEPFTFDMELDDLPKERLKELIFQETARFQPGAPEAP
T1 sequence (P63086 whole entry, looked up): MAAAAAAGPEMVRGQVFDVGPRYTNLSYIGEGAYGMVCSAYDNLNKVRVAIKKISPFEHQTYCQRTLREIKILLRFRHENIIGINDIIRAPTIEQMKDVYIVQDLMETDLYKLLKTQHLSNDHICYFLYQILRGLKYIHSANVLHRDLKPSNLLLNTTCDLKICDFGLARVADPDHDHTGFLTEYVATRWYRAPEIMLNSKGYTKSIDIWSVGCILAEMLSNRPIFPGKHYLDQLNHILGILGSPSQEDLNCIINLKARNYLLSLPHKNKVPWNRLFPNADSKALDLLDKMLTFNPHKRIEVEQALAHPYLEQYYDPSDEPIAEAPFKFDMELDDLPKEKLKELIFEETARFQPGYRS

As for `CC(C)[C@@H](C)/C=C/[C@@H](C)[C@H]1CC[C@@H]2[C@]1(C)CC[C@H]1[C@]23C=C[C@]2(C[C@@H](O)CC[C@]12C)OO3`, in series [1], the inhibition result is “inactive”.
Same read-out and setting: to `CC(C)[C@@H](C)/C=C/[C@@H](C)[C@H]1CC[C@@H]2[C@]1(C)CC[C@H]1[C@]23C=C[C@]2(C[C@@H](O[C@@H]4O[C@H](CO)[C@@H](O)[C@H](O)[C@H]4O)CC[C@]12C)OO3` belongs “inactive”; to `CC(C)[C@@H](C)/C=C/[C@@H](C)[C@H]1CC[C@H]2C3=CC(=O)[C@@]4(O)C[C@@H](O)CC[C@]4(C)[C@@]3(O)CC[C@]12C`, “inactive”; to `CC(C)[C@@H](C)/C=C/[C@@H](C)[C@H]1CC[C@H]2C3=CC=C4C[C@@H](O)CC[C@]4(C)[C@H]3CC[C@]12C`, “inactive”.
Consider `CC(C)[C@@H](C)/C=C/[C@@H](C)[C@H]1CC[C@H]2C3=CC[C@H]4C[C@@H](O)CC[C@]4(C)[C@H]3CC[C@]12C`, for which the inhibition result in series [1] was “inactive”.
On to `CC(C)[C@@H](C)/C=C/[C@@H](C)[C@H]1CC[C@H]2C3=C[C@@H](O)[C@@]4(O)C[C@@H](O)CC[C@]4(C)[C@H]3CC[C@]12C`, for which the inhibition result in [1] was “inactive”.
For `CC(C)[C@@H](C)/C=C/[C@@H](C)[C@H]1CC[C@H]2C3=C[C@@H](O)[C@@]4(O)C[C@@H](O[C@@H]5O[C@H](CO)[C@@H](O)[C@H](O)[C@H]5O)CC[C@]4(C)[C@H]3CC[C@]12C`, the inhibition entry in series [1] was “inactive”.
Same read-out and setting: under `CCCCCCCCCCCCCCC[C@@H](O)C(=O)N[C@@H](CO[C@@H]1O[C@H](CO)[C@@H](O)[C@H](O)[C@H]1O)[C@H](O)/C=C/CC/C=C(\C)CCCCCCCCC` stands “inactive”.
On the same count and under the same terms, to `CO[C@@H]1C=C2[C@@H]3CC[C@H]([C@H](C)/C=C/[C@H](C)C(C)C)[C@@]3(C)CC[C@]2(O)[C@@]2(C)CC[C@H](O)C[C@]12O` belongs “inactive”; to `C[C@H](CO)C1=C2C3=CC=C(C=O)C[C@H](O)[C@]3(C)CC[C@@]2(CO)CC1`, “inactive”.
In the case of `C[C@H](CO)C1=C2[C@H]3CC=C(C=O)CC(=O)[C@]3(C)CC[C@@]2(C)CC1`, the outcome in series [2] was Active. In series [1], the inhibition result was “Active”.
Consider `C[C@H](CO)[C@]12CC[C@]3(C)CC[C@@]4(C)C(=O)CC(C=O)=CC[C@@H]4[C@@]31O2` (relative stereo) [SCABRONINE M], for which the results for the Activity in [3] and in series [4] were 23.22% and “Non-toxic”, respectively. Also, the neurite-bearing cells at 10 µM in [5] was found to be 9.15%. The Ratio in [6] turned out to be 0.26; in series [13] it was 0.24; in series [16] it was 0.21. In addition, the results for the fold change (FC) in series [7], in series [8] and in series [10] were 1.34, 1.4 and 1.61, respectively. Besides, the inhibition result in series [9], in series [1] and in series [14] was “Dose-dependent effect” each time. In series [11], the neurite-bearing cells at 100 µM turned out to be 0.1%. Further, in series [12], the neurite-bearing cells at 50 µM is 1.6%. In addition, the outcome in series [15] was inactive.
